What was measured:
Format in all cases: biochemical
[1] = molecular target: T1, SchPPT (Streptomyces chattanoogensis, UniProt H9N836); assay: in vitro phosphopantetheinylation of scn ACP0-2, LC-MS; conditions: 2 mM CoA, 200 uM scn ACP0-2, 20 uM PPTase, 1.25 mM MgCl2, pH 7.5, 25 °C, 30 min
T1 construct: full-length group II (Sfp-type) PPTase; SchPPT cloned in pET28a (pHJ0024), E. coli; N-terminal His6 stated for the mutants

[2] = molecular target: T2, Sppt (Synechocystis sp. PCC 6803, UniProt Q55185); assay: in vitro phosphopantetheinylation of sch FAS ACP, HPLC; conditions: 2 mM CoA, 200 uM sch FAS ACP, 20 uM Sppt, 1.25 mM MgCl2, pH 7.5, 25 °C, 30 min
T2 construct: gene slr0495; full-length
T2 sequence (Q55185 whole entry): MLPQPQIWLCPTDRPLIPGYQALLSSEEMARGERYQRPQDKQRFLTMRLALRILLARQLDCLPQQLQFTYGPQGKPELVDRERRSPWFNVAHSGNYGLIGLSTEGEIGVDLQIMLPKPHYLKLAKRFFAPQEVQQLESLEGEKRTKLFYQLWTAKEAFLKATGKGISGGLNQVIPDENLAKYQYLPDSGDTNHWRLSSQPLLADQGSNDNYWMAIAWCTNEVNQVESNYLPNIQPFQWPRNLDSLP

[3] = molecular target: T3, Sppt (Synechocystis sp. PCC 6803, UniProt Q55185, Q112E); assay: as above; conditions: 2 mM CoA, 200 uM sch FAS ACP, 20 uM Sppt, 1.25 mM MgCl2, pH 7.5, 25 °C, 30 min
T3 construct: gene slr0495; full-length
T3 sequence (Q55185 whole entry Q112E): as the sequence (Q55185 whole entry) above, with Q112E counted along it

T1 sequence (H9N836 entry or part of it): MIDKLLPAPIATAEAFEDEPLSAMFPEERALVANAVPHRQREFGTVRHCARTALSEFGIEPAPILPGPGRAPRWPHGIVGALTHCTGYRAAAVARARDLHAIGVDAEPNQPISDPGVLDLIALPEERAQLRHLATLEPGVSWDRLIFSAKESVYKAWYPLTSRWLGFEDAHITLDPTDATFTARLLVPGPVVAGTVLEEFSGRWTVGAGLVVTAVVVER

With CC(C)(COP(=O)(O)OP(=O)(O)OC[C@H]1O[C@@H](n2cnc3c(N)ncnc32)[C@H](O)[C@@H]1OP(=O)(O)O)[C@@H](O)C(=O)NCCC(=O)NCCS [CoA] the “in vitro phosphopantetheinylation of scn ACP0-2, LC-MS” value [1] was “only wild type SchPPT but neither of the two mutants phosphopantetheinylated scn ACP0-2”, the “in vitro phosphopantetheinylation of sch FAS ACP, HPLC” value [2] was “After incubation of sch FAS ACP with CoA in the presence of Sppt” and the “in vitro phosphopantetheinylation of sch FAS ACP, HPLC” value [3] was “After incubation of sch FAS ACP with CoA in the presence of SpptQ112E”.

Source: PMC4103896, “Characterization and Evolutionary Implications of the Triad Asp-Xxx-Glu in Group II Phosphopantetheinyl Transferases” (PLoS ONE, 2014)
